Measured values taken from patent publication EP1053750A1, “Use of proteasome-inhibitor for the induction of programmed cell death (apoptosis)” (Max-Planck-Gesellschaft zur Förderung der Wissenschaften …, priority 1999, dated 2000).
Peptide text beside a SMILES is read from it. * marks the point of attachment. Cbz = O=C(OCc1ccccc1)*; OtBu = CC(C)(C)O*

Tests used:
caspase-1 like activity = assay: Caspase activity in lysates of treated HUE cells, substrate Ac-YVAD-AMC; assay type: cell-based, human; settings: HUE cell lysates, 50 µM, throughout the time course
Description: Detection of a caspase-3-like activity in lysates of PSI-treated HUE cells. […] The specific caspase activities are shown as pmol of substrate hydrolyzed/min per µg of protein.
HUE cells (8 x 10^5) were plated onto 10 cm plastic dishes, allowed to attach overnight, and inhibitors were added to a final concentration of 50 µM for the times indicated in Fig. 4. DMSO, which served as the vehicle, was added to a final concentration of 0.1%. Floating and adherent cells were then harvested, lysed in Buffer I (1% Triton X100, 10 mM KCl, 20 mM HEPES pH 7.4, 1.5 mM MgCl2, 0.2 mM EGTA, 1 mM PMSF), snap frozen in liquid nitrogen and stored at -80°C until required. Lysates were centrifuged at 13000 g for 5 min at 4°C, the supernatants collected and protein concentrations determined using the BCA assay. A 40 µl aliquot of each sample was assayed in the presence of 20 µM Ac-DEVD-AMC or Ac-YVAD-AMC substrates (Bachem, Heidelberg, Germany) in Buffer II (50 mM PIPES-KOH pH 7.0, 0.1 mM EDTA, 1 mM DTT, 10% glycerol; total volume 250 µl) for 40 min at 37°C and the fluorescence intensity was measured with an excitation wavelength of 350 nm and emission wavelength of 430 nm. […] Specific activity was expressed as pmol AMC liberated per min and per µg protein in comparison to a standard curve calculated from the amount of free AMC (SIGMA, Deisenhofen, Germany).

MDCK epithelial cells = assay: Viability assay (MIT assay), MDCK cells; assay type: cell-based, canine; settings: for EC50: Canis lupus familiaris, 48 h, 48 h incubation
Description: The indicated values are expressed as the percentage of absorbance at 570 nm relative to the absorbance obtained by DMSO treated (control) cells.
Madin Darby canine kidney epithelial cells (MDCK; ATCC CLL-34) were grown in Dulbecco's Modified Eagle's Medium (DMEM) containing 10% FCS, penicillin and streptomycin.
Briefly, the cells were plated either at 3000 cells/well (low density) or 30000 cells/well (high density) onto 96 well plates and grown over night. […] The formazan cystals generated were subsequently dissolved in DMSO and absorption measured at 570 - 650 nm.

[1] = tested on: chorioallantoic membrane (CAM); assay: Chorioallantoic membrane (CAM) assay; assay type: in vivo, chick embryo; settings: for %CAMs with non-perfused areas: Luconyl Blue injection, positive/total CAMs in parenthesis
Description: All experiments with chick embryos were performed in ovo. After aspiration of 2 ml of eggwhite from the pointed side of the egg, a window was cut into the eggshell on embryonic day 3 or 4 (E3, E4). The eggs were resealed with tape and further incubated until E9. […] Approximately 1 cm^2-pieces of the CAM were then cut out, washed in PBS and fixed in Carnoy's solution. After dehydration and embedding in paraffin, 8 µm sections were cut and stained with an anti-BrdU mouse monoclonal antibody (Boehringer Mannheim, Germany) according to the manufacturer's instructions. Counterstaining of the sections was performed with Gill's hematoxylin (Serva, Heidelberg, Germany). Sections were mounted using Aquamount (Merck, Darmstadt, Germany) and photos were taken with a Zeiss Axiophot microscope. […] Control pellets were prepared with an equal amount of Leupeptin or with DMSO as vehicle, respectively. To aid in the visualization of the vascular system, embryos and CAMs were then injected using pulled glass capillaries with 10% Luconyl Blue (BASF, Ludwigshafen, Germany) in PBS, and photographs were taken using a stereomicroscope with camera adapter.
In eight eggs the windows of the egg shells were enlarged under an operation microscope. After a peripheral incision in the CAM was made, the main artery was incised with a pair of ocular scissors, and a glass capillary (World Precision Instruments, Inc. Germany) pulled to the adequate diameter, was inserted and sealed with a drop of cyanoacrylate (Loctite®). Efflux was enabled by making another incision into a main draining vessel. The vascular system was flushed with up to 5 ml of prewarmed (37 -39°C) physiological saline (0.9% NaCI) under mechanically controlled pressure. […] After complete polymerization of the casting solution, the membranes were dissected and macerated in a solution of 5% potassium hydroxide (Fluka, Neu-Ulm, Germany) at 40°C for 1 - 2 days. The resulting corrosion casts of all specimens were freeze dried, mounted and sputter coated. Examination of the microvascular corrosion casts were carried out with a Stereoscan Mk-250 scanning electron microscope (Cambridge, England). Alternatively, in situ fixed CAM segments were cut out, processed for semi-thin sectioning and stained with methylene blue and Azur II. Selected specimens were trimmed for ultrathin sectioning, and counterstained with uranyl acetate and lead citrate.

BAE cells = assay: Viability assay (MIT assay), BAE cells; assay type: cell-based, bovine; settings: for EC50: Bos taurus
HUE cells [2] = assay: Apoptotic morphology (phase contrast, Hoechst 33342), HUE cells; assay type: cell-based, human; settings: subconfluent HUE cells, 50 µM, 18 - 24 hours
Description: Phase contrast pictures are shown on the left, and identical areas which display the nuclear morphology after Hoechst staining are shown on the right. Arrowheads point at nuclei with apoptotic morphology. Scale bars are 50 µm.
Primary bovine aortic endothelial cells (BAE) were isolated from bovine pulmonary aorta according to the method of Schwartz (In Vitro 14 (1978), 966 - 980) and maintained in MDCB131 medium supplemented with 8% fetal calf serum (FCS), penicillin (100 lU/ml) and streptomycin (100 µg/ml) at 5% CO2. Human umbilical vein endothelial cells (HUE), an immortalized human umbilical vein endothelial cell line (ATCC CRL-1730) were cultured under the same conditions. Madin Darby canine kidney epithelial cells (MDCK; ATCC CLL-34) were grown in Dulbecco's Modified Eagle's Medium (DMEM) containing 10% FCS, penicillin and streptomycin.

HUE cells [3] = assay: Viability assay (MIT assay), HUE cells; assay type: cell-based, human; settings: for EC50: Homo sapiens, 48 h, 48 h incubation
[4] = sub (low density, subconfluent)
[5] = EC50 confluent versus subconfluent, 2880 min

With `CC[C@H](C)[C@H](NC(=O)OCc1ccccc1)C(=O)N[C@@H](CCC(=O)OC(C)(C)C)C(=O)N[C@@H](C)C(=O)N[C@H](C=O)CC(C)C` [PSI, carbobenzoxy-L-isoleucyl-y-t-butyl-L-glutamyl-L-alanyl-L-leucinal] (Cbz-IE(OtBu)AL-aldehyde) the caspase-1 like activity (caspase-1 like activity) was “could not be detected”, the EC50 (MDCK epithelial cells; con (confluent)) was 3.1 µM and the EC50 (MDCK epithelial cells; [4]) was 0.016 µM. For the same compound, the x difference (MDCK epithelial cells; [5]) was 194 fold, the “%CAMs with non-perfused areas” value ([1]; 0.31 µg/disc, methylcellulose disc on CAM for 48 h) was 0(0/10) % and the “%CAMs with non-perfused areas” value ([1]; 1.0 µg/disc, methylcellulose disc on CAM for 48 h) was 56.3 (18/32) %. The “%CAMs with non-perfused areas” value ([1]; 3.1 µg/disc, methylcellulose disc on CAM for 48 h) was 85.7 (12/14) %, the “densities of the capillary plexus and first order vessels (corrosion casts)” value ([1]; CAM area directly under the disc) was “rarified” and the “TUNEL labeling of cell nuclei in CAM sections” value ([1]; methylcellulose disc on CAM for 48 h, cells in close contact with the disc) was “Intense labeling”. The x difference (BAE cells; BAE, EC50 confluent versus subconfluent, 2880 min) was 340 fold, the EC50 (BAE cells; 96 h, BAE cells seeded at high density, grown to confluency for 4 days) was 8.15 µM and the EC50 (BAE cells; BAE, con (grown to confluency for 4 days), 48 h incubation) was 8.15 µM. For the same compound, the EC50 (BAE cells; BAE, sub (low density, subconfluent), 48 h incubation, viability reduced to 50% of DMSO control) was 0.024 µM, the “induction of apoptosis (nuclear morphology)” value (HUE cells [2]) was “Induction of apoptosis” and the x difference (HUE cells [3]; [5]) was 1119 fold. For the same compound, the EC50 (HUE cells [3]; con (grown to confluency)) was 7.83 µM and the EC50 (HUE cells [3]; [4]) was 0.007 µM.
